Results taken from patent US20230339835A1, “2,3,5-TRIMETHYL-6-NONYLCYCLOHEXA-2,5-DIENE-1,4-DIONE FOR SUPPRESSING AND TREATING ALPHA-SYNUCLEINOPATHIES, TAUOPATHIES, AND OTHER DISORDERS” (PTC THERAPEUTICS, INC., priority 2018, published 2023).
Where two headings read alike, the source gives them in different places.

What was measured:
[1] = tested on: AD patient fibroblasts AG04402; assay: Rescue of AD patient fibroblasts from BSO plus iron-induced oxidative stress, AG04402; assay type: cell-based; settings: Homo sapiens, Fibroblast
Procedure: (§1) An initial screen was performed to identify the effectiveness of compounds for the amelioration of PD and AD. Test samples and solvent controls were tested for their ability to rescue PD and AD fibroblasts stressed by addition of L-buthionine-(S,R)-sulfoximine (BSO, a specific inhibitor of GSH synthetase) plus iron (e.g. iron citrate), in a similar manner as that described in Jauslin et al., Hum. Mol. Genet. 11(24):3055 (2002), Jauslin et al., FASEB J. 17:1972-4 (2003), and International Patent Application WO 2004/003565. This specific BSO-mediated cell death was prevented or ameliorated by administration of compounds described herein.
(§2) The AD experiments were performed as follows. PD experiments were performed in a similar manner; certain specific conditions are noted below in Table 1A.
(§3) MEM (a medium enriched in amino acids and vitamins) and Medium 199 (M199) with Earle's Balanced Salts (EBS), without phenol red, were purchased from Invitrogen. Fetal Calf Serum was obtained from Corning. […]
(§4) 100 microliters of Calcein AM (1 microM) in PBS+Ca+Mg was then added to each well. […] After that time fluorescence (excitation/emission wavelengths of 485 nm and 525 nm, respectively) was read on a Spectramax fluorescence reader. Data were analyzed using standard four-parameter curve fit algorithms (XLFit or Prism) to determine the EC50 concentration for each compound.

[2] = tested on: AD patient fibroblasts AG11414; assay: Rescue of AD patient fibroblasts from BSO plus iron-induced oxidative stress, AG11414; assay type: cell-based; settings: Homo sapiens, Fibroblast
Procedure: as §1, §2, §3, §4

[3] = Brain and plasma exposure of C9 in mice after oral dosing; assay type: in vivo; settings: mouse, 300 mg/kg PO in sesame oil, C57BL/6 mice
Procedure: A 300 mg/kg dose of C9 was administered as a sesame oil solution via oral gavage to four C57BL/6 mice. Eight hours after compound administration, plasma and brain exposure were measured (Table 10).

[4] = tested on: AD patient fibroblasts ND34730; assay: Rescue of AD patient fibroblasts from BSO plus iron-induced oxidative stress, ND34730; assay type: cell-based; settings: Homo sapiens, Fibroblast
Procedure: as §1, §2, §3, §4

[5] = Iron citrate (100 μM) + BSO (100 μM)
[6] = Iron citrate (200 μM) + BSO (100 μM)

`CCCCCCCCCC1=C(C)C(=O)C(C)=C(C)C1=O` [Compound C9, 2,3,5-trimethyl-6-nonylcyclohexa-2,5-diene-1,4-dione] gave an EC50 [1, 5] of 5 nM, an EC50 [1, 6] of 12 nM and an EC50 [2, 5] of 11 nM. For the same compound, the EC50 [2, 6] was 23 nM, the Kp at 8 h ([3]; brain and plasma, read-out: Brain:Plasma Ratio) was 7 and the concentration at 8 h ([3]; brain, read-out: C9 [Brain]) was 27900 ng/g. For the same compound, the concentration at 8 h ([3]; plasma, read-out: C9 [Plasma]) was 3830 ng/mL, the EC50 ([4]; Iron citrate (50 μM) + BSO (50 μM)) was 15 nM and the EC50 ([4]; Iron citrate (100 μM) + BSO (25 μM)) was 24 nM.
